Measured values taken from patent US20070099822A1, “Regulation of tissue mineralization and phosphate metabolism by asarm peptides” (priority 2003, published 2007).
“And” between values parts separate entries of the source, which are not always exact repeats. Equal entries are not always repeated. “Also recorded” adds a separate entry of the source.

Experiments:
[1] = system: mice; test: Example II: subcutaneous injection twice a day for three weeks, serum and urine; type: in vivo; details: for serum phosphate: three weeks, vehicle 9.62; for serum calcium vs vehicle / serum alkaline phosphatase vs vehicle: etidronate 60 mg/kg/day; for serum alkaline phosphatase vs vehicle: ASARM 1.3 and 4 mg/kg/day (both groups); for % FEP vs control: two injections per day over three weeks, ASARM 1.34 and 4.00 mg/kg/day
Method: Four groups of 7 mice were injected subcutaneously twice a day for three weeks. The first group received vehicle only as a control, the second group received etidronate at 60 mg/kg/day, the third group received ASARM peptide at 1.3 mg/kg/day (“low ASARM”), and the fourth group received ASARM peptide at 4 mg/kg/day (“high ASARM”). Calcein/tetracycline was administered to the animals 4 days and 2 days before the end of the protocol for visualization purposes.
(§1) FIGS. 14a and 14b show the Fractional Excretion of Phosphate (FEP) in two different experiments. In the experiment shown in FIG. 14a, each of three groups of mice was treated with one injection per day, over two weeks, of either: (a) vehicle alone, (b) etidronate (10 mg/kg/day), or (c) ASARM peptide (2 mg/kg/day). In the experiment show in FIG. 14b, each of four groups of mice was treated with two injections per day, over three weeks, of either: (a) vehicle alone, (b) etidronate (60 mg/kg/day), (c) ASARM (1.34 mg/kg/day; “ASARM-low”), or (d) ASARM (4.00 mg/kg/day; “ASARM-high”).

[2] = system: mice; test: Example III: subcutaneous injection once a day for 12 days, mineralization and phosphate handling; type: in vivo; details: ASARM peptide 2 mg/kg/day; for Phosphate Excretion Index (PEI) / increase in urinary calcium levels compared to the control / inhibition in tooth mineralization / inhibition of mineralization in femur / inhibition of mineralization in tibia/femur / mineralization of calvariae and long bones / renal phosphorous clearance vs vehicle / serum calcium vs control / serum phosphate / tubular reabsorption of phosphate vs vehicle / urinary phosphate excreted in a 24-hour period vs control / urine creatinine / urine phosphate / Fractional Excretion of Phosphate (FEP) vs vehicle / inhibition of mineralization of calvariae: etidronate 10 mg/kg/day; for Fractional Excretion of Phosphate (FEP) vs vehicle / inhibition of mineralization of calvariae: s.c. once a day 12 days; for inhibition of mineralization of calvariae: calcein
Method: as §1
Three groups of 5 mice each received a subcutaneous injection once a day for 12 days. […] Calcein was given at 20 mg/kg/day on days 3, 5, 8, and 10 to allow visualization. The first group of mice were given an injection of vehicle only. The second group of mice were given etidronate at 10 mg/kg/day. The third group of mice were given ASARM peptide at 2 mg/kg/day.

[3] = system: male ICR Swiss mice; test: Example VI: subcutaneous PO4-ASARM-peptide or etidronate, calcein fluorescence and Sanderson osteoid staining; type: in vivo
Method: Subcutaneous administration of PO4-ASARM-peptide, etidronate (EHDP), and calcein. Three separate groups of male ICR Swiss mice (4-5 weeks) were subcutaneously injected once a day (9:00AM), for 12 days except for days 6 and 7 with 50 μL solutions of either (1) Eitidronate (EHDP) (10 mg/kg/day); (2) PO4-ASARM-peptide (2 mg/kg/day); or (3) vehicle consisting of 5 mM HEPES pH 7.4/150 mM NaCL/0.1% BSA. The synthetic PO4-ASARM-peptide was dissolved in vehicle (1.0 mg/mL). Etidronate was first dissolved in 150 mM NaCl and then buffered to pH 7.5 with 1M NaOH to give a 5 mg/mL solution. The 10 mg/kg/day doses of etidronate have previously been reported to inhibit mineralization in rats and were used as positive controls (Trechsel, et al., Am J Physiol 232(3):E298-305, 1977; Bonjour, et al., Am J Physiol 229(2):402-8, 1975). All three groups were subcutaneously injected with calcein (20 mg/kg/day) on days 3, 5, […]. The degree of calcein fluorescence and/or fluorescence-quenching is an indicator of mineralization status (see next section). The calcein injections when given were administered 1 h after the daily injections of PO4-ASARM-peptide, EHDP or vehicle. Animals were then terminated humanely and calvariae plus femurs/tibia were fixed in 70% ethanol (non-decalcified). After fluorescence imaging (see FIG. 35) calvariae were processed in plastic and stained with Sanderson's stain (see below). Five animals per group were used for statistical analysis of fluorescence quenching and histological Sanderson staining.
Calcein fluorescence in mice calvariae, hind-limbs & fluor-imager analysis of mineralization. A Bio-Rad (Hercules, Calif.) FluorImager^max fluorescent imager was used to simultaneously image all the samples from each of the 3 groups (15 animals; five animals per group). This consisted of 10 tibia/femurs and 5 calvariae per group. Samples were placed on top of the FluorImager plate contained within a light-tight box. Ultra-violet light was used to generate calcein-mediated epi-fluorescence and the fluorescent-image was captured on a −40° C., peltier-cooled, 1,340×1040 pixel CCD resolution, CCD digital-camera. Quantitation of fluorescence was carried out using Quantity-1 (Bio-Rad, Hercules, Calif.) fluorescence-software. Pixel saturation was prevented by internal software calibration and exposure adjustment. All fluorescence readings were thus accurately quantitative and non-saturating. Photo-micrographic UV fluorescent analysis of calvarial cross sections embedded in plastic and mounted as slides (<100 micrometer sections) was also undertaken and a description of the fixation and processing is given in the next section.
Sanderson-staining and fluorescence detection of calvarial osteoid & mineralized bone. Staining of non-decalcified calvarial sections was performed using the method described by Sanderson and Bachus (Staining technique to differentiate mineralized and demineralized bone in ground sections, J Histotechnol 20(2): 119-122, 1997). This technique provides differential staining between unmineralized osteoid and mineralized bone. Prior to staining, calvariae were dissected and attached tissue removed. Calvariae were then placed in 70% ethanol for further fixation as described by Sanderson and Bachus (supra). After fixing and processing undecalcified calvariae were embedded in plastic (LR-white acrylic resin (London Resin Co., Reading, England)) as previously described (Garrett, et al., Selective inhibitors of the osteoblast proteasome stimulate bone formation in vivo and in vitro, J Clin Invest 111(11):1771-1782, 2003). Plastic embedded sections were ground to <100 micrometers using a specialized grinding-pestle as described by Donath and Breuner (A method for the study of undecalcified bones and teeth with attached soft tissues. The Sage-Schliff (sawing and grinding) technique, J Oral Pathol 11(4):318-26, 1982). […]

[4] = target: T1, MEPE-PHEX interaction (Homo sapiens, UniProt P78562); test: Surface plasmon resonance, peptide solution competition of secPHEX-MEPE binding; details: peptide pre-mixed with secPHEX, MEPE-RGD up to 85 μM
T1 construct: to generate a soluble, secreted form of PHEX; made in house; host or cells: secPHEX: mammalian cells (gift, University of Montreal); MEPE: S. frugiperda insect cells
T1 sequence (P78562 46-749 limits assumed): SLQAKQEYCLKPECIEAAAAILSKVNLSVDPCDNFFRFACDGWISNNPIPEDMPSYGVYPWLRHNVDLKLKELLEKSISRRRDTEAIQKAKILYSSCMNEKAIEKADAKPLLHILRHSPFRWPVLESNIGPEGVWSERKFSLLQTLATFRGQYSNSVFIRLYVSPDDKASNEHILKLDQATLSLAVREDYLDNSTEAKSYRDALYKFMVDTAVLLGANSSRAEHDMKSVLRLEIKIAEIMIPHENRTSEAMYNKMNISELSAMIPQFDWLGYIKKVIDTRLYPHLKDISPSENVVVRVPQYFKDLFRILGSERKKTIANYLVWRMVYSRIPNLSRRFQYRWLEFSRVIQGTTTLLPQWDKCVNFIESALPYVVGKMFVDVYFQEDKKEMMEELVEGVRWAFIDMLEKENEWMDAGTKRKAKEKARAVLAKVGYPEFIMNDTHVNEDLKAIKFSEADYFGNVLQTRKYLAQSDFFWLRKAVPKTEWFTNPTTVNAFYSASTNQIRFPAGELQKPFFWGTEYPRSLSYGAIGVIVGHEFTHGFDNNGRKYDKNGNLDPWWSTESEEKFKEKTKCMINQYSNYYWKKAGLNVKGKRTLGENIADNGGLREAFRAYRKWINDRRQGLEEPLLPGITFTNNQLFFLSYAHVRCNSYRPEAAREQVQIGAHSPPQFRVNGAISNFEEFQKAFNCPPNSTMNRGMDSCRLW
Excerpt: Surface Plasmon Resonance: Synthetic peptides & competitive PHEX-MEPE binding studies. For these experiments CM-5 chips containing flow-cells immobilized with MEPE, PHEX and IgG ligands at 6000 RU were used. Just prior to SPR injection, stock solution of specific-peptide (as defined for each experiment; see Table 1), and dissolved in analyte buffer (HBS-P—Zn) […] The following equation was used to compute KDapp values: RU=Bmax/inhib×(peptide(μM))/KDapp+(peptide(μM)). The Bmax/inh value represents the maximal percentage inhibition change in RU (i.e., PHEX-MEPE binding) relative to the “non-peptide” control (0% inhibition of binding), using a constant analyte flow-solution of secPHEX of 250 nM against immobilized MEPE ligand at 6000 RU. […] The control MEPE-RGD peptide had no effect on MEPE-PHEX interactions.

[5] = PO4-ASARM-peptide 2 mg/kg/day, etidronate 10 mg/kg/day

| Molecule | serum calcium vs vehicle ([1]; ASARM 1.3 and 4 mg/kg/day) | serum alkaline phosphatase vs vehicle [1] | increase in urinary calcium levels compared to the control [2] | inhibition in tooth mineralization [2] | inhibition of mineralization in femur [2] | inhibition of mineralization in tibia/femur [2] | mineralization of calvariae and long bones [2] | serum calcium vs control [2] | tubular reabsorption of phosphate vs vehicle [2] | urinary phosphate excreted in a 24-hour period vs control [2] | urine creatinine [2] | urine phosphate [2] | Fractional Excretion of Phosphate (FEP) vs vehicle [2] | inhibition of mineralization of calvariae [2] | other results |
| --- | --- | --- | --- | --- | --- | --- | --- | --- | --- | --- | --- | --- | --- | --- | --- |
| CC(O)(P(=O)(O)O)P(=O)(O)O [etidronate, reference compound] | lower serum calcium levels | significantly higher levels | 75.9% | 53.2% | 15.8% | 19.2% | greatly inhibited | slightly higher level | higher | far less phosphate | significant elevation; also recorded: significantly elevated | induced hypophosphaturia | significantly lower | 48.4% | serum phosphate ([1]; etidronate 60 mg/kg/day s.c. twice a day): 10.04 mg/dL; Phosphate Excretion Index (PEI) [2]: lower PEI; renal phosphorous clearance vs vehicle [2]: significantly less phosphate clearance; serum phosphate [2]: induce hyperphosphatemia; increase of osteoid layer thickness relative to vehicle [3, 5]: 2.35 fold; percentage quenching of calvarial calcein fluorescence relative to vehicle [3, 5]: 48% and 48.4%; calvariae calcein fluorescence ([3]; PO4-ASARM-peptide 2 mg/kg/day, etidronate 10 mg/kg/day, s.c. 12 days, vehicle 1100.5): 417.7 fluorescent intensity units; calvarial osteoid relative thickness (Sanderson staining) ([3]; PO4-ASARM-peptide 2 mg/kg/day, etidronate 10 mg/kg/day, vehicle 2.3): 5.4; lamellar calcein fluorescent layers in calvarial cross-sections ([3]; four layers visible in vehicle group): complete absence |
| ASARM peptide: ASARM peptide injected subcutaneously in Examples II and III; sequence and phosphorylation not stated; data resemble PO4-ASARM-peptide of Example VI (RDDSSESSDSGSSSESDGD) | lower serum calcium levels | levels similar to that of the vehicle; also recorded: levels similar to that of the control | 56.3% | 35.3% | 44.6% | 24.4% | mineralization was inhibited | did not show a significantly elevated level | higher | far less phosphate | significant elevation; also recorded: significantly elevated | induced hypophosphaturia | significantly lower; also recorded: decreased | 62.0% | urinary phosphate excretion over 24 hours vs etidronate and control groups ([1]; ASARM 1.3 and 4 mg/kg/day): significantly higher; serum phosphate ([1]; ASARM high, 4 mg/kg/day s.c. twice a day): 10.01 mg/dL; serum phosphate ([1]; ASARM low, 1.3 mg/kg/day s.c. twice a day): 10.60 mg/dL; % FEP vs control [1]: increase in FEP; % FEP vs control ([1]; listed as ASARM): much higher % FEP levels; serum alkaline phosphatase vs etidronate or vehicle groups [2]: lower levels; Phosphate Excretion Index (PEI) ([2]; listed as ASARM): much lower PEI; mineralization of calvariae and long bones ([2]; listed as ASARM): greatly inhibited; renal phosphorous clearance vs vehicle ([2]; listed as ASARM): significantly less phosphate clearance; serum phosphate ([2]; listed as ASARM): induced hyperphosphatemia; urinary phosphate excreted in a 24-hour period vs control ([2]; listed as ASARM): far less; urine phosphate ([2]; listed as ASARM): hypophosphaturia; % FEP vs control ([2]; one injection per day over two weeks): significantly lower % FEP; also recorded: decrease in FEP |
| GSGYTDLQERGDNDISPFSGDGQPF (Homo sapien) [MEPE-RGD, 15, negative control, reference compound] | – | – | – | – | – | – | – | – | – | – | – | – | – | – | inhibition of MEPE-PHEX interaction [4]: did not competitively inhibit; also recorded: no effect; inhibition of MEPE-PHEX interaction ([4]; listed as MEPE-RGD-peptide): no inhibition |
